Type in all cases: in vivo, Wistar-Kyoto (WKY) rats
In series [1] the test system is CCI rats. The series is described as follows: Thermal hyperalgesia in CCI (sciatic nerve ligation) neuropathic pain rats. The conditions noted are these: 15 mg/kg DM or 15 mg/kg equivalent of DM, intraperitoneally once daily for a week from day 8 after CCI; examined on day 15 after CCI; compared with corresponding baseline. As for the experimental part: (§1) Adult male WKY rats weighing 200-250 g. Rats were housed individually in each cage and the experiments started at least three days after their arrival. The surgical procedure was performed under pentobarbital anesthesia (50 mg/kg, intraperitoneally). CCI rats were produced by loosely ligating the common sciatic nerve on one side according to the method. Briefly, the right sciatic nerve was exposed in themid-thigh and separated from the adjacent tissue. Four loose ligatures using 4-0 chromic gut sutures were made around the dissected nerve with a 1.0-1.5 mm interval between each pair of ligatures. The skin wound was closed using stainless steel pins. In sham rats, the same surgical procedure was followed except for nerve ligation. DM and formula I (1-1) were diluted in 10% DMSO. The MDSO (10%) was also used for vehicle control.
(§2) The drugs DM (15 mg/kg for DM) or the formula I (1-1) (15 mg/kg equivalent of DM) was given intraperitoneally once daily for a week, beginning in the second week after CCI (i.e., day 8 after CCI).

In series [2] the test system is CCI rats. The series is described as follows: Mechanical allodynia in CCI (sciatic nerve ligation) neuropathic pain rats. The following applies: 15 mg/kg DM or 15 mg/kg equivalent of DM, intraperitoneally once daily for a week from day 8 after CCI; examined at end of one-week treatment; compared with corresponding baseline. The procedure:
as §1, §2

Series [3] relates to CCI rats. Put plainly: Motor deficits or sedation judged by gait and overall appearance. The conditions noted are these: 15 mg/kg DM or equivalent, intraperitoneally once daily for a week. As for the experimental part:
as §2

Turning to `CN1CC[C@@]23CCCC[C@@H]2[C@@H]1Cc1ccc(OC(=O)CCCCCC[C@]2(C)CCSS2)cc13` [formula I (1-1)], in the series with CCI rats [1], the reducing thermal hyperalgesia entry is listed as “reduced thermal hyperalgesia”. Besides, the reducing mechanical allodynia entry with CCI rats [2] was “significantly improved mechanical allodynia”. For the same compound, in the series with CCI rats [3], the “motor deficits or sedation” value is reported as “no motor deficits or sedation”.

Take `COc1ccc2c(c1)[C@]13CCCC[C@@H]1[C@H](C2)N(C)CC3` [DM, Dextromethorphan]: the reducing thermal hyperalgesia result with CCI rats [1] is “only marginally effective”. The reducing mechanical allodynia result with CCI rats [2] is on record as “effective only in reducing mechanical allodynia”. For the same compound, the “motor deficits or sedation” value with CCI rats [3] is recorded as “no motor deficits or sedation”.

The values above are taken from patent publication US9242939B2, “Compositions and methods for the treatment of respiratory disorders” (CELLIX BIO PRIVATE LIMITED, priority 2012, dated 2016).
